Experimental data: ChEMBL document CHEMBL1124585, “Iodoaryl analogues of dioctanoylglycerol and 1-oleoyl-2-acetylglycerol as probes for protein kinase C” (J Med Chem, 1989)

Molecular target: Protein kinase C (PKC) (Rattus norvegicus) (UniProt P05696+P68403+P09216+P63319+P09215+Q64617+Q9WTQ0+P09217)
Assay: Activation of protein kinase C
Format: protein assay

Dose [µM]	SMILES
1	CC(=O)OCC(CO)OC(=O)CCCCCCCCCCCCCCc1cccc(I)c1 (stereo not drawn)
1	CC(=O)OC(CO)COC(=O)CCCCCCCCCCCCCCc1cccc(I)c1 (stereo not drawn)
1	CCCCCCCC(=O)OCC(CO)OC(=O)CCc1cccc(I)c1 (stereo not drawn)
